The record followed here is ChEMBL document CHEMBL1154072, “An efficient steroid pharmacophore-based strategy to identify new aromatase inhibitors” (Eur J Med Chem, 2009).

Each structure is given as a SMILES string.

The target of data set [1] is T1, Aromatase (Homo sapiens, UniProt P11511).
T1 sequence (P11511 whole entry): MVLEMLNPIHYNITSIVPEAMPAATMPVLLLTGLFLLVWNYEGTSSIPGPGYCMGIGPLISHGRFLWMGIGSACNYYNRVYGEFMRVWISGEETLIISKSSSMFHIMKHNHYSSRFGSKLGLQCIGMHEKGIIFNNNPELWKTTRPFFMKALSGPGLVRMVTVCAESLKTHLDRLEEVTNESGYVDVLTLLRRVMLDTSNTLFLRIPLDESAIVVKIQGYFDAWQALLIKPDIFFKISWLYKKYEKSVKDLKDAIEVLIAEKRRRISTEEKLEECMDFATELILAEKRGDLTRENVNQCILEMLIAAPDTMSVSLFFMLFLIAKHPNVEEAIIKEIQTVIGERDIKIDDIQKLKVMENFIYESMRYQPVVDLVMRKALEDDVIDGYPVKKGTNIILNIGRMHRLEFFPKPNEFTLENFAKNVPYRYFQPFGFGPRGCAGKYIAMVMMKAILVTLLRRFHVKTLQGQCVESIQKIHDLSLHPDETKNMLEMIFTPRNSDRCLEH
In words: Inhibition of human placental aromatase assessed as conversion of [1-beta-3H]androstenedione to […] at 100 uM after 20 mins by liquid scintillation counting. The conditions noted are these: for inhibition (INH): 100 µM.

Data set [2] addresses T1, Aromatase. In words: Inhibition of human placental aromatase assessed as conversion of [1-beta-3H]androstenedione to [1beta-3H]estrone after 20 mins by liquid scintillation counting.
Data set [3] has as its target T1, Aromatase. In words: Competitive inhibition of human placental aromatase by Lineweaver-Burke plot analysis.
The target in data set [4] is T1, Aromatase. In words: Inhibition of human placental aromatase assessed as conversion of [1-beta-3H]androstenedione to […] at 30 uM after 20 mins by liquid scintillation counting.
Data set [5] deals with T1, Aromatase. In words: Inactivation of human placental aromatase assessed as residual activity at 7.5 uM after 12 mins in presence of 0.5 mM L-cysteine. Particulars: 0.2 h; call rule not given here.

As for `CCn1cc(C(=O)O)c(=O)c2ccc(-c3c[nH]nc3C)nc21`, in data set [1], the “inhibition (INH)” value is “Not Active”.
What is called IC50 is the midpoint of a concentration-inhibition curve. As for `CC1C(O)CC23COC(=O)C2=CCCC3C1(C)CCC1=CC(=O)OC1` (centres undefined), the IC50 in data set [2] stood at 126 µM.
For orientation: Ki means the dissociation constant of the complex between target and ligand, obtained from inhibition or displacement. Higher therefore signals weaker binding. On to `CC1C2=CC(=O)CCC2(C)C2CCC3(C)C(=O)CCC3C12` (centres undefined), for which the IC50 in data set [2] is 0.274 µM. For the same molecule, in data set [3], the affinity corresponds to a Ki of 0.266 µM.
Broadly, the inhibition is how much of the control response was suppressed. For `CCCCSC(=O)[C@@]1(C)CC[C@H]2[C@@H](CC=C3C[C@@H](OC(C)=O)CC[C@@]32C)[C@@H]1CC#N`, in data set [4], the inhibition at 30 µM came out at 21%.
Take `C[C@]12CCC(=O)C(O)=C1CC[C@@H]1[C@@H]2CC[C@]2(C)C(=O)CC[C@@H]12` [FORMESTANE]: the concentration for half-maximal inhibition (IC50) in data set [2] was 0.092 µM.
In the case of `C=C1C(=O)O[C@H]2C[C@@H](C)[C@@H]3CC(=O)OC[C@@]3(C)C[C@H]12`, in data set [1], the “inhibition (INH)” value is “Not Active”.
On to `Cc1nc2c(cc1C#N)C(Nc1ccc(Cl)cc1)Oc1ccc([N+](=O)[O-])cc1-2` (centres undefined), for which the IC50 in data set [2] came out at 0.678 µM. The same molecule had a Ki in data set [3] of 0.385 µM. The result in data set [5] was Active.
On to `C[C@H]1C2=CC(=O)CCC(C)(O2)[C@H]2CC[C@]3(C)C(=O)CC[C@H]3[C@H]12` (some centres undefined), for which the IC50 in data set [2] worked out at 9.8 µM.
`CC/C(=C1\C=CC(=O)S1)C(CC)c1ccc(OC(C)=O)cc1` (centres undefined): the 50% inhibitory concentration (IC50) in data set [2] worked out at 15.5 µM.
As for `CCCC(=O)Oc1cc(OC(=O)CCC)c2c(C)cc(=O)oc2c1`, the half-maximal inhibitory concentration (IC50) in data set [2] worked out at 176 µM.
Turning to `CCOC(=O)C1=C(C)C2C=C(c3cccs3)CC(c3ccc(Cl)cc3)=C2OC1=O` (centres undefined), the inhibition at 100 µM in data set [1] was 26%.
